In patent US7846959B2, “Raf modulators and methods of use” (Exelixis, Inc., priority 2004, dated 2010):

Tests used:
[1] = target: c-Raf (Homo sapiens, UniProt P04049); experiment: Luciferase-coupled chemiluminescence kinase assay (ATP consumption), c-Raf; format: biochemical; settings: read-out: cRaf-1 (inhibition indicated as IC50)
Method in brief: (§1)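 ATP depletion, limited to 25-60%, read by luciferase-luciferin chemiluminescence gives IC50 values. Before the 3 hr ambient-temperature kinase reaction with ATP, compound and […] enzyme were preincubated 30 minutes at room temperature in Tris pH 7.5 buffer with MgCl2, TX-100 and DTT.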

[2] = target: B-Raf (Homo sapiens, UniProt P15056); experiment: Luciferase-coupled chemiluminescence kinase assay (ATP consumption), B-Raf; format: biochemical; settings: read-out: bRaf (inhibition indicated as IC50)
Method in brief: as §1

c-Raf, sequence (P04049 whole entry): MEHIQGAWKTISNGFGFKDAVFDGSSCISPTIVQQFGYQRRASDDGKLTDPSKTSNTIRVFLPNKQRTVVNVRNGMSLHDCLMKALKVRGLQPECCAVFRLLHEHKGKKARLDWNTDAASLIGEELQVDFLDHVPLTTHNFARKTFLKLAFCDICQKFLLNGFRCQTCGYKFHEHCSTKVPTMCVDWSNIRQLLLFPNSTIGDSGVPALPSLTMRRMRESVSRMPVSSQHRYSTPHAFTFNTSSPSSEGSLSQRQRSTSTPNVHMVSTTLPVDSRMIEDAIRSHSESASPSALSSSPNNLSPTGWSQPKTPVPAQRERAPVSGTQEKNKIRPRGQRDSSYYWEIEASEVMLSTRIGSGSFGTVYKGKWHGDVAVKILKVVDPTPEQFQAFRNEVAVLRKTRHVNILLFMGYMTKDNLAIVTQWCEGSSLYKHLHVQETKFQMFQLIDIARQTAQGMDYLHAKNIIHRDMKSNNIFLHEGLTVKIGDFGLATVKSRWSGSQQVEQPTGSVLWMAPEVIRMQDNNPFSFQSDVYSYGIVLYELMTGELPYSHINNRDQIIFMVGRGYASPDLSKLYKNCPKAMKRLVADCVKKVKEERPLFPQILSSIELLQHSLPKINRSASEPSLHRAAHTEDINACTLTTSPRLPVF
B-Raf, sequence (P15056 whole entry): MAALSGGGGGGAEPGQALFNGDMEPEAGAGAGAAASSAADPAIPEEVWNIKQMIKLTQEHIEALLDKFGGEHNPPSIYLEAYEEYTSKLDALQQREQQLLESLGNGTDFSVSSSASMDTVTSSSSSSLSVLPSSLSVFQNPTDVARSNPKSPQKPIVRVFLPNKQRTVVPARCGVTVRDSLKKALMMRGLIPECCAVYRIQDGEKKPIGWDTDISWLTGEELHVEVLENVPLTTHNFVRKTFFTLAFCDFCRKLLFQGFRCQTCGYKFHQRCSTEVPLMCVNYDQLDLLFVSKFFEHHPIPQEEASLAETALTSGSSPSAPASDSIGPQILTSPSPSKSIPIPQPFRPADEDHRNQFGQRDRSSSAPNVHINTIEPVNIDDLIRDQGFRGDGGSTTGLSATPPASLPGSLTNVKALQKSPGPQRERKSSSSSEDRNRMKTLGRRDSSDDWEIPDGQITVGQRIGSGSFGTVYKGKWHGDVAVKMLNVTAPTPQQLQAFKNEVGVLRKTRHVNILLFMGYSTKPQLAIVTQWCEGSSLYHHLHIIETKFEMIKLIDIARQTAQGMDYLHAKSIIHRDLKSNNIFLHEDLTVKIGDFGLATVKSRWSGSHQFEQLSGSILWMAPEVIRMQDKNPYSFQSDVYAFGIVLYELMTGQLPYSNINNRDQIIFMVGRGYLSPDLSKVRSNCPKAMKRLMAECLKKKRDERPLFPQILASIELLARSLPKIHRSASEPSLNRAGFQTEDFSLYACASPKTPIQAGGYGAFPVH

SMILES	IC50 [1] [nM]	IC50 [2] [nM]
COC(=O)Nc1nc2cc(C3(O)c4ccccc4C(=O)N3c3cc(F)cc(Br)c3F)ccc2[nH]1 (stereo not drawn) [Entry 307, methyl {5-[2-(3-bromo-2,5-difluorophenyl)-1-hydroxy-3-oxo-2,3-dihydro-1H-isoindol-1-yl]-1H-benzimidazol-2-yl}carbamate]	< 100	< 100
O=C(Nc1nc2ccc(C3(O)c4ccccc4C(=O)N3c3cccc(Cl)c3F)cc2[nH]1)OCCN1CCOCC1 (stereo not drawn) [Entry 308, 2-morpholin-4-ylethyl {6-[2-(3-chloro-2-fluorophenyl)-1-hydroxy-3-oxo-2,3-dihydro-1H-isoindol-1-yl]-1H-benzimidazol-2-yl}carbamate]	< 100	< 100
CN1CCCC(COC(=O)Nc2nc3ccc(C4(O)c5ccccc5C(=O)N4c4cccc(Cl)c4F)cc3[nH]2)C1 (stereo not drawn) [Entry 309, (1-methylpiperidin-3-yl)methyl {6-{2-(3-chloro-2-fluorophenyl)-1-hydroxy-3-oxo-2,3-dihydro-1H-isoindol-1-yl]-1H-benzimidazol-2-yl}carbamate]	< 100	< 100
COC(=O)Nc1nc2cc(C3(O)c4ccccc4C(=O)N3c3cc(Cl)ccc3OC)ccc2[nH]1 (stereo not drawn) [Entry 310, methyl (5-{2-[5-chloro-2-(methyloxy)phenyl]-1-hydroxy-3-oxo-2,3-dihydro-1H-isoindol-1-yl}-1H-benzimidazol-2-yl)carbamate]	< 100	< 100
COC(=O)Nc1nc2cc(C3(O)c4ccccc4C(=O)N3c3cccc(N(C)C4CCCCC4)c3)ccc2[nH]1 (stereo not drawn) [Entry 311, methyl [5-(2-{3-[cyclohexyl(methyl)amino]phenyl}-1-hydroxy-3-oxo-2,3-dihydro-1H-isoindol-1-yl)-1H-benzimidazol-2-yl]carbamate]	< 100	< 100
O=C(Nc1nc2ccc(C3(O)c4ccccc4C(=O)N3c3cccc(Cl)c3F)cc2[nH]1)OCC1CC2CCC(C1)N2 (stereo not drawn) [Entry 312, 8-azabicyclo[3.2.1]oct-3-ylmethyl {6-[2-(3-chloro-2-fluorophenyl)-1-hydroxy-3-oxo-2,3-dihydro-1H-isoindol-1-yl]-1H-benzimidazol-2-yl}carbamate]	< 100	< 100
COC(=O)Nc1nc2ccc(C3CCC(=O)N3c3cccc(Br)c3)cc2[nH]1 (stereo not drawn) [Entry 313, methyl {6-[1-(3-bromophenyl)-5-oxopyrrolidin-2-yl]-1H-benzimidazol-2-yl}carbamate]	1000 to 10000	1000 to 10000
CN1CCC(COC(=O)Nc2nc3cc(C4(O)c5ccccc5C(=O)N4Cc4ccccc4)ccc3[nH]2)CC1 (stereo not drawn) [Entry 314, (1-methylpiperidin-4-yl)methyl {5-[1-hydroxy-3-oxo-2-(phenylmethyl)-2,3-dihydro-1H-isoindol-1-yl]-1H-benzimidazol-2-yl}carbamate]	< 100	< 100
CC(C)(C)OC(=O)N1CCC(COC(=O)Nc2nc3cc(C4(O)c5ccccc5C(=O)N4Cc4ccccc4)ccc3[nH]2)CC1 (stereo not drawn) [Entry 315, 1,1-dimethylethyl 4-({[({5-[1-hydroxy-3-oxo-2-(phenylmethyl)-2,3-dihydro-1H-isoindol-1-yl]-1H-benzimidazol-2-yl}amino)carbonyl]oxy}methyl)piperidine-1-carboxylate]	100 to 1000	100 to 1000
CN1CCC(COC(=O)Nc2nc3cc(C4(O)c5ccccc5C(=O)N4c4cccc(Cl)c4F)ccc3[nH]2)CC1 (stereo not drawn) [Entry 316, (1-methylpiperidin-4-yl)methyl {5-[2-(3-chloro-2-fluorophenyl)-1-hydroxy-3-oxo-2,3-dihydro-1H-isoindol-1-yl]-1H-benzimidazol-2-yl}carbamate]	< 100	< 100
CN1CCC(CCOC(=O)Nc2nc3cc(C4(O)c5ccccc5C(=O)N4c4cccc(Cl)c4F)ccc3[nH]2)CC1 (stereo not drawn) [Entry 317, 2-(1-methylpiperidin-4-yl)ethyl {5-[2-(3-chloro-2-fluorophenyl)-1-hydroxy-3-oxo-2,3-dihydro-1H-isoindol-1-yl]-1H-benzimidazol-2-yl}carbamate]	< 100	< 100
COC(=O)C(=O)Nc1nc2ccc(C3(O)c4ccccc4C(=O)N3c3cccc(Cl)c3F)cc2[nH]1 (stereo not drawn) [Entry 318, methyl ({6-[2-(3-chloro-2-fluorophenyl)-1-hydroxy-3-oxo-2,3-dihydro-1H-isoindol-1-yl]-1H-benzimidazol-2-yl}amino)(oxo)acetate]	1000 to 10000	1000 to 10000
O=C(CCCN1CCCCC1)Nc1nc2cc(C3(O)c4ccccc4C(=O)N3c3cccc(Oc4ccccc4)c3)ccc2[nH]1 (stereo not drawn) [Entry 319, N-(5-{1-hydroxy-3-oxo-2-[3-(phenyloxy)phenyl]-2,3-dihydro-1H-isoindol-1-yl}-1H-benzimidazol-2-yl)-4-piperidin-1-ylbutanamide]	< 100	< 100
COC(=O)Nc1nc2ccc(C3(C)c4ccccc4C(=O)N3c3cccc(Br)c3)cc2[nH]1 (stereo not drawn) [Entry 320, methyl {6-[2-(3-bromophenyl)-1-methyl-3-oxo-2,3-dihydro-1H-isoindol-1-yl]-1H-benzimidazol-2-yl}carbamate]	< 100	< 100
CCN(CC)CC#CCOC(=O)Nc1nc2ccc(C3(O)c4ccccc4C(=O)N3c3cccc(Cl)c3F)cc2[nH]1 (stereo not drawn) [Entry 321, 4-(diethylamino)but-2-yn-1-yl {6-[2-(3-chloro-2-fluorophenyl)-1-hydroxy-3-oxo-2,3-dihydro-1H-isoindol-1-yl]-1H-benzimidazol-2-yl}carbamate]	< 100	< 100
COC(=O)Nc1nc2cc(C3(O)c4ccccc4C(=O)N3c3c(F)ccc(Cl)c3F)ccc2[nH]1 (stereo not drawn) [Entry 322, methyl {5-[2-(3-chloro-2,6-difluorophenyl)-1-hydroxy-3-oxo-2,3-dihydro-1H-isoindol-1-yl]-1H-benzimidazol-2-yl}carbamate]	< 100	< 100
O=C(Nc1nc2ccc(C3(O)c4ccccc4C(=O)N3c3cccc(Cl)c3F)cc2[nH]1)OCCN1CCCC1=O (stereo not drawn) [Entry 323, 2-(2-oxopyrrolidin-1-yl)ethyl {6-[2-(3-chloro-2-fluorophenyl)-1-hydroxy-3-oxo-2,3-dihydro-1H-isoindol-1-yl]-1H-benzimidazol-2-yl}carbamate]	< 100	< 100
O=C(Nc1nc2ccc(C3(O)c4ccccc4C(=O)N3c3cccc(Cl)c3F)cc2[nH]1)OCCN1C(=O)CCC1=O (stereo not drawn) [Entry 324, 2-(2,5-dioxopyrrolidin-1-yl)ethyl {6-[2-(3-chloro-2-fluorophenyl)-1-hydroxy-3-oxo-2,3-dihydro-1H-isoindol-1-yl]-1H-benzimidazol-2-yl}carbamate]	< 100	< 100

Second part, the molecule after the results:

IC50 [1] [nM]	IC50 [2] [nM]	SMILES
< 100	< 100	O=C(Nc1nc2cc(C3(O)c4ccccc4C(=O)N3c3cccc(Cl)c3F)ccc2[nH]1)OC1CC(F)(F)C1(F)F (stereo not drawn) [Entry 325, 2,2,3,3-tetrafluorocyclobutyl {5-[2-(3-chloro-2-fluorophenyl)-1-hydroxy-3-oxo-2,3-dihydro-1H-isoindol-1-yl]-1H-benzimidazol-2-yl}carbamate]
< 100	< 100	CC(=O)N1CCC(C(=O)Nc2nc3cc(C4(O)c5ccccc5C(=O)N4c4cccc(Cl)c4F)ccc3[nH]2)CC1 (stereo not drawn) [Entry 326, 1-acetyl-N-{5-[2-(3-chloro-2-fluorophenyl)-1-hydroxy-3-oxo-2,3-dihydro-1H-isoindol-1-yl]-1H-benzimidazol-2-yl}piperidine-4-carboxamide]
< 100	< 100	O=C(Nc1nc2cc(C3(O)c4ccccc4C(=O)N3c3cccc(Cl)c3F)ccc2[nH]1)C1CCC1 (stereo not drawn) [Entry 327, N-{5-[2-(3-chloro-2-fluorophenyl)-1-hydroxy-3-oxo-2,3-dihydro-1H-isoindol-1-yl]-1H-benzimidazol-2-yl}cyclobutanecarboxamide]
100 to 1000	100 to 1000	CCN(c1ccccc1)c1cccc(N2C(=O)c3ccccc3C2(O)c2ccc3[nH]c(NC(=O)OC)nc3c2)c1 (stereo not drawn) [Entry 328, methyl [5-(2-{3-[ethyl(phenyl)amino]phenyl}-1-hydroxy-3-oxo-2,3-dihydro-1H-isoindol-1-yl)-1H-benzimidazol-2-yl]carbamate]
< 100	< 100	O=C(Nc1nc2ccc(C3(O)c4ccccc4C(=O)N3c3cccc(Cl)c3F)cc2[nH]1)C1CC1(F)F (stereo not drawn) [Entry 329, N-{6-[2-(3-chloro-2-fluorophenyl)-1-hydroxy-3-oxo-2,3-dihydro-1H-isoindol-1-yl]-1H-benzimidazol-2-yl}-2,2-difluorocyclopropanecarboxamide]
< 100	< 100	O=C(Nc1nc2ccc(C3(O)c4ccccc4C(=O)N3c3cccc(Cl)c3F)cc2[nH]1)OC1CCC1 (stereo not drawn) [Entry 330, cyclobutyl {6-[2-(3-chloro-2-fluorophenyl)-1-hydroxy-3-oxo-2,3-dihydro-1H-isoindol-1-yl]-1H-benzimidazol-2-yl}carbamate]
< 100	< 100	O=C(Nc1nc2ccc(C3(O)c4ccccc4C(=O)N3c3cccc(Cl)c3F)cc2[nH]1)OCC(F)F (stereo not drawn) [Entry 331, 2,2-difluoroethyl {6-[2-(3-chloro-2-fluorophenyl)-1-hydroxy-3-oxo-2,3-dihydro-1H-isoindol-1-yl]-1H-benzimidazol-2-yl}carbamate]
< 100	< 100	O=C1c2ccccc2C(O)(c2ccc3[nH]c(Nc4ccccn4)nc3c2)N1c1cccc(Cl)c1F (stereo not drawn) [Entry 332, 2-(3-chloro-2-fluorophenyl)-3-hydroxy-3-[2-(pyridin-2-ylamino)-1H-benzimidazol-5-yl]-2,3-dihydro-1H-isoindol-1-one]
< 100	< 100	CC(C)OC(=O)Nc1nc2ccc(C3(O)c4ccccc4C(=O)N3c3cccc(Cl)c3F)cc2[nH]1 (stereo not drawn) [Entry 333, 1-methylethyl {6-[2-(3-chloro-2-fluorophenyl)-1-hydroxy-3-oxo-2,3-dihydro-1H-isoindol-1-yl]-1H-benzimidazol-2-yl}carbamate]
